Reference: PMC12175177 (Frontiers in Pharmacology, 2025)
In brackets after ≈: the same amount, converted by molar mass. Structures can show the parent of a compound that is named as a salt.

How the values were obtained:
[1] = Cytotoxicity (MTT / CellTiter-Glo cell viability) in Calu-3 cells; type: cell-based, human; conditions: human, Calu-3 cells, at MNCC, 48 h exposure, normalized to untreated control; mean 2x
Description: (§1) An 80% viability threshold was established for selecting the compounds for further analysis.

[2] = Cytotoxicity (MTT / CellTiter-Glo cell viability) in Vero-E6 cells; type: cell-based, African green monkey; conditions: African green monkey, Vero-E6 cells, at MNCC, 48 h exposure, normalized to untreated control; mean 2x
Description: as §1

Vero-E6 and Calu-3 cells = experiment: Maximum non-cytotoxic concentration (MNCC) determination; type: cell-based; conditions: 48 h
Description: as §1

Calu-3 cells = experiment: Cytotoxicity (MTT / CellTiter-Glo cell viability) in Calu-3 cells; type: cell-based, human; conditions: at MNCC, 48 h exposure, normalized to untreated control, mean 2x
Description: as §1

Vero-E6 cells = experiment: Cytotoxicity (MTT / CellTiter-Glo cell viability) in Vero-E6 cells; type: cell-based, African green monkey; conditions: at MNCC, 48 h exposure, normalized to untreated control, mean 2x
Description: as §1

[3] = doses commonly administered in human treatments; ref Byakika-Kibwika et al., 2012 (ASi); Nicol et al., 2020 (CQ, HCQ); Gonzalez Canga et al., 2008 (IVM); Bhatia et al., 1986 (PQ); cited from earlier work
[4] = CC50 determination in Vero E6 cells; conditions: African green monkey
Description: (§2) DMSO was used as a negative control. To calculate the IC50 and CC50, a 4-parameter nonlinear regression sigmoidal concentration-response function was undertaken using the Prism 10 software package (GraphPad, Boston, MA, USA).

SARS-CoV-2 = system: SARS-CoV-2; set-up: method as in Gendrot et al., 2020c; conditions: other studies; ref Gendrot et al., 2020c; cited from earlier work
Vero E6 cells = experiment: CC50 determination in Vero E6 cells; conditions: Vero E6
Description: as §2

[5] = CC50 (Figure 4 curve), Vero-E6, sigmoidal 4PL fit

## CCN(CC)Cc1cc(Nc2ccnc3cc(Cl)ccc23)ccc1O [Amodiaquine (AQ), Amodiaquine]
[1]
  viability at 48 h: 82%
[2]
  viability at 48 h: 84%
Vero-E6 and Calu-3 cells
  MNCC Concentration: 20 µM

## CCO[C@H]1O[C@@H]2O[C@@]3(C)CC[C@H]4[C@H](C)CC[C@@H]([C@H]1C)[C@@]24OO3 [Arteether (AE), Arteether]
[1]
  viability at 48 h: 97%
[2]
  viability at 48 h: 104%
Vero-E6 and Calu-3 cells
  MNCC Concentration: 125 µM

## C[C@H]1[C@@H](OCc2ccc(C(=O)O)cc2)O[C@@H]2O[C@@]3(C)CC[C@H]4[C@H](C)CC[C@@H]1[C@@]24OO3 [Artelinic Acid (AA), Artelinic Acid]
Calu-3 cells
  % viability Calu-3: 92%
Vero-E6 cells
  % viability Vero E6: 100%
Vero-E6 and Calu-3 cells
  MNCC Concentration: 30 µM

## C[C@H]1[C@H](N2CCS(=O)(=O)CC2)O[C@@H]2O[C@@]3(C)CC[C@H]4[C@H](C)CC[C@@H]1[C@@]24OO3 [Artemisone (ASO), Artemisone]
[1]
  viability at 48 h: 93%
[2]
  viability at 48 h: 92%
Vero-E6 and Calu-3 cells
  MNCC Concentration: 125 µM

## C[C@H]1[C@H](OC(=O)CCC(=O)O)O[C@@H]2O[C@@]3(C)CC[C@H]4[C@H](C)CC[C@@H]1[C@@]24OO3 [Artesunate injection (ASi), Artesunate]
Calu-3 cells
  % viability Calu-3: 82%
Vero-E6 cells
  % viability Vero E6: 81%
Vero-E6 and Calu-3 cells
  MNCC Concentration: 50 µM
Vero-E6 and Calu-3 cells; listed as ASi
  MNCC Concentration: 50 µM
[3]
  Cmax (maximum plasma concentration): 3300 ng/mL
[4]; CC50% in µg/mL, Vero E6
  CC50 at 72 h: 27 µg/mL
[4]; CC50%, Vero E6
  CC50 at 72 h: 70.3 µM

## C[C@H]1[C@H](OC(=O)CCC(=O)O)O[C@@H]2O[C@@]3(C)CC[C@H]4[C@H](C)CC[C@@H]1[C@@]24OO3 [Artesunic acid (AS), Artesunic acid]
Calu-3 cells
  % viability Calu-3: 74%
[1]
  viability at 48 h: < 80%
[2]
  viability at 48 h: < 80%
Vero-E6 cells
  % viability Vero E6: 74%
Vero-E6 and Calu-3 cells
  MNCC Concentration: 125 µM

## CC[C@H]1OC(=O)[C@H](C)[C@@H](O[C@H]2C[C@@](C)(OC)[C@@H](O)[C@H](C)O2)[C@H](C)[C@@H](O[C@@H]2O[C@H](C)C[C@H](N(C)C)[C@H]2O)[C@](C)(O)C[C@@H](C)CN(C)[C@H](C)[C@@H](O)[C@]1(C)O [Azithromycin dehydrate (AZH), Azithromycin dehydrate]
[1]
  viability at 48 h: 87%
[2]
  viability at 48 h: 92%
Vero-E6 and Calu-3 cells
  MNCC Concentration: 30 µM

## CN(C)C(=O)COC(=O)Cc1ccc(OC(=O)c2ccc(NC(=N)N)cc2)cc1 [Camostat mesylate (CAM), Camostat mesylate]
[1]
  viability at 48 h: 112%
[2]
  viability at 48 h: 118%
Vero-E6 and Calu-3 cells
  MNCC Concentration: 50 µM

## CCN(CC)CCCC(C)Nc1ccnc2cc(Cl)ccc12 (stereo not shown) [Chloroquine diphosphate (CQ), Chloroquine diphosphate]
[1]
  viability at 48 h: 105%
[2]
  viability at 48 h: 103%
Vero-E6 and Calu-3 cells
  MNCC Concentration: 5 µM
[3]
  Cmax (maximum plasma concentration): 2700 ng/mL
[4]; CC50% in µg/mL, Vero E6
  CC50 at 72 h: 17 µg/mL
[4]; CC50%, Vero E6
  CC50 at 72 h: 53.2 µM
[4]; [5]
  CC50 at 72 h: 57.1 µM
SARS-CoV-2
  EC50: 2.1 µM
  EC90: 3.8 µM

## CCN(CCO)CCCC(C)Nc1ccnc2cc(Cl)ccc12 (stereo not shown) [Hydroxychloroquine Minsa (HCQ-m), Hydroxychloroquine]
Calu-3 cells
  % viability Calu-3: 84%
Vero-E6 cells
  % viability Vero E6: 72%
Vero-E6 cells; listed as HCQ-m
  % viability Vero E6: < 80%

## CCN(CCO)CCCC(C)Nc1ccnc2cc(Cl)ccc12 (stereo not shown) [Hydroxychloroquine sulfate (HCQ), Hydroxychloroquine sulfate]
Calu-3 cells
  % viability Calu-3: 64%
[1]
  viability at 48 h: < 80%
Vero-E6 cells
  % viability Vero E6: 47%
Vero-E6 cells; listed as HCQ sulfate
  % viability Vero E6: < 80%
[3]
  Cmax (maximum plasma concentration): 130 ng/mL
[4]; CC50% in µg/mL, Vero E6
  CC50 at 72 h: 23.2 µg/mL
[4]; CC50%, Vero E6
  CC50 at 72 h: 72.1 µM
[4]; [5]
  CC50 at 72 h: 72.1 µM

## O=C(Nc1cccc(C2=NCCN2)c1)Nc1cccc(C2=NCCN2)c1 [Imidocarb (IMI), Imidocarb]
[1]
  viability at 48 h: 106%
[2]
  viability at 48 h: 92%

## CC[C@H](C)[C@H]1O[C@]2(CC[C@@H]1C)C[C@@H]1C[C@@H](C/C=C(\C)[C@@H](O[C@H]3C[C@H](OC)[C@@H](O[C@H]4C[C@H](OC)[C@@H](O)[C@H](C)O4)[C@H](C)O3)[C@@H](C)/C=C/C=C3\CO[C@@H]4[C@H](O)C(C)=C[C@@H](C(=O)O1)[C@]34O)O2 [Ivermectin (IVM), Ivermectin]
Calu-3 cells
  % viability Calu-3: 87%
Vero-E6 cells
  % viability Vero E6: 93%
Vero-E6 and Calu-3 cells
  MNCC Concentration: 8 µM
[3]
  Cmax (maximum plasma concentration): 50 ng/mL
Vero E6 cells
  CC50: 74 µM
  CC50%: 64.8 µg/mL (≈ 74 µM)

## CCCCN(CCCC)CC(O)c1cc(Cl)cc2c1-c1ccc(Cl)cc1/C2=C/c1ccc(Cl)cc1 (stereo not shown) [Lumefantrine (LUM), Lumefantrine]
[1]
  viability at 48 h: 86%
[2]
  viability at 48 h: 86%
Vero-E6 and Calu-3 cells
  MNCC Concentration: 250 µM

## OC(c1cc(C(F)(F)F)nc2c(C(F)(F)F)cccc12)C1CCCCN1 (stereo not shown) [Mefloquine (MQ), Mefloquine]
[1]
  viability at 48 h: 82%
[2]
  viability at 48 h: 105%
Vero-E6 and Calu-3 cells
  MNCC Concentration: 30 µM

## CN(C)c1ccc2nc3ccc(=[N+](C)C)cc-3sc2c1 [Methylene Blue Injection (MBi), Methylene Blue]
[1]
  viability at 48 h: 89%
[2]
  viability at 48 h: 84%
Vero-E6 and Calu-3 cells
  MNCC Concentration: 5 µM

## COc1c(C)c2c(c(O)c1C/C=C(\C)CCC(=O)O)C(=O)OC2 [Mycophenolic acid (MYC), Mycophenolic acid]
[1]
  viability at 48 h: 109%
[2]
  viability at 48 h: 107%
Vero-E6 and Calu-3 cells
  MNCC Concentration: 5 µM

## COc1cc(NC(C)CCCN)c2ncccc2c1 (stereo not shown) [Primaquine Phosphate (PQ), Primaquine Phosphate]
[1]
  viability at 48 h: 87%
[2]
  viability at 48 h: 106%
Vero-E6 and Calu-3 cells
  MNCC Concentration: 15 µM
[3]
  Cmax (maximum plasma concentration): 50 ng/mL
[4]; CC50% in µg/mL, Vero E6
  CC50 at 72 h: 5.5 µg/mL
[4]; CC50%, Vero E6
  CC50 at 72 h: 21.2 µM
[4]; [5]
  CC50 at 72 h: 21.2 µM

## CN1CCN(CCCN2c3ccccc3Sc3ccc(Cl)cc32)CC1 [Prochlorperazine (PCPZ), Prochlorperazine]
Calu-3 cells
  % viability Calu-3: 77%
[1]
  viability at 48 h: < 80%
[2]
  viability at 48 h: 80%
Vero-E6 and Calu-3 cells
  MNCC Concentration: 30 µM

## COc1ccc2nc3cc(Cl)ccc3c(Nc3cc(CN4CCCC4)c(O)c(CN4CCCC4)c3)c2n1 [Pyranoridine (PNO), Pyranoridine]
Calu-3 cells
  % viability Calu-3: 78%
Calu-3 cells; listed as PNO
  % viability Calu-3: < 80%
Vero-E6 cells
  % viability Vero E6: 91%
Vero-E6 and Calu-3 cells
  MNCC Concentration: 5 µM

## CCc1nc(N)nc(N)c1-c1ccc(Cl)cc1 [Pyrimethamina (PYR), Pyrimethamina]
[1]
  viability at 48 h: 92%
[2]
  viability at 48 h: 94%
Vero-E6 and Calu-3 cells
  MNCC Concentration: 125 µM

## C=C[C@H]1C[N@@]2CC[C@H]1C[C@H]2[C@H](O)c1ccnc2ccc(OC)cc12 [Quinine Sulfate (QN), Quinine Sulfate]
[1]
  viability at 48 h: 90%
[2]
  viability at 48 h: < 80%
Vero-E6 cells
  % viability Vero E6: 74%
Vero-E6 and Calu-3 cells
  MNCC Concentration: 5 µM

## NC(=O)c1ncn([C@@H]2O[C@H](CO)[C@@H](O)[C@H]2O)n1 [Ribavirin (RIB), Ribavirin]
[1]
  viability at 48 h: 91%
[2]
  viability at 48 h: 104%
Vero-E6 and Calu-3 cells
  MNCC Concentration: 250 µM

## Ferroquine [Ferroquine (FQ)]
Calu-3 cells
  % viability Calu-3: 63%
Vero-E6 cells
  % viability Vero E6: 75%
Vero-E6 cells; listed as FQ
  % viability Vero E6: < 80%
Vero-E6 and Calu-3 cells
  MNCC Concentration: 5 µM

## Ivermectin [Ivermectin Farmacia (IVM-f)]
Calu-3 cells
  % viability Calu-3: 67%
Calu-3 cells; listed as IVM-f
  % viability Calu-3: < 80%
Vero-E6 cells
  % viability Vero E6: 101%
Vero-E6 and Calu-3 cells
  MNCC Concentration: 75 µM

## Ivermectin [Ivermectin Liquida (IVM-li)]
Calu-3 cells
  % viability Calu-3: 87%
Vero-E6 cells
  % viability Vero E6: 85%
Vero-E6 and Calu-3 cells
  MNCC Concentration: 30 µM
